Assay results as given in patent publication US9637483B2, “Heterocyclic compound” (TAKEDA PHARMACEUTICAL COMPANY LIMITED, priority 2013, dated 2017).

How the values were obtained:
Format in all cases: biochemical
TYK2 = target: T1, TYK2 (Homo sapiens, UniProt P29597); assay: TYK2 enzyme inhibition test (LANCE method); conditions: 1 μM test compound; read-out: TYK2 enzyme inhibitory activity (%, 1 μM)
T1 construct: purchased Invitrogen
Method: (§1) TYK2 enzyme inhibitory activity of test compounds was measured by the LANCE method (PerkinElmer). First, a test compound diluted with assay buffer (50 mM HEPES (pH 7.5), 10 mM MgCl2, 1 mM EGTA, 2 mM DTT, 0.01% Tween20, 0.01% BSA) was added to a 384-well plate by 2 μL each. Then, a TYK2 (Invitrogen) solution and a fluorescence-labeled peptide substrate (ULight-JAK1, PerkinElmer) solution diluted with assay buffer to 375 ng/mL and 300 nM, respectively, were added by 2 μL each. Then, an enzyme reaction was started by adding 2 μL each of ATP solution prepared with assay buffer to 30 μM. After the reaction at room temperature for 1 hr, Detection Buffer (PerkinElmer) prepared to contain 20 mM EDTA, 4 nM europium-labeled anti-phosphotyrosine antibody (PerkinElmer) was added by 6 μL each. After standing at room temperature for 1 hr, fluorescence intensity (excitation wavelength 340 nm, fluorescence wavelength 665 nm, delay time 100 microseconds) was measured by a plate reader, Envision (PerkinElmer). The inhibitory activity of each compound was calculated as a relative activity value to the fluorescence intensity of a well free of enzyme as 100% inhibition.

JAK1 = target: T2, JAK1 (Homo sapiens, UniProt P23458); assay: JAK1 enzyme inhibition test (LANCE method); conditions: 1 μM test compound; read-out: JAK1 enzyme inhibitory activity (%, 1 μM)
T2 construct: purchased Invitrogen
Method: as §1, with “JAK1 enzyme” for “TYK2 enzyme”, “a JAK1” for “a TYK2”, “to 187.5” for “to 375”, “to 150” for “to 30”

JAK2 = target: T3, JAK2 (Homo sapiens, UniProt O60674); assay: JAK2 enzyme inhibition test (LANCE method); conditions: 1 μM test compound; read-out: JAK2 enzyme inhibitory activity (%, 1 μM)
T3 construct: purchased Invitrogen
Method: as §1, with “JAK2 enzyme” for “TYK2 enzyme”, “a JAK2” for “a TYK2”, “to 6” for “to 375”, “to 45” for “to 30”

JAK3 = target: T4, JAK3 (Homo sapiens, UniProt P52333); assay: JAK3 enzyme inhibition test (LANCE method); conditions: 1 μM test compound; read-out: JAK3 enzyme inhibitory activity (%, 1 μM)
T4 construct: purchased Invitrogen
T4 sequence (P52333 1-1124): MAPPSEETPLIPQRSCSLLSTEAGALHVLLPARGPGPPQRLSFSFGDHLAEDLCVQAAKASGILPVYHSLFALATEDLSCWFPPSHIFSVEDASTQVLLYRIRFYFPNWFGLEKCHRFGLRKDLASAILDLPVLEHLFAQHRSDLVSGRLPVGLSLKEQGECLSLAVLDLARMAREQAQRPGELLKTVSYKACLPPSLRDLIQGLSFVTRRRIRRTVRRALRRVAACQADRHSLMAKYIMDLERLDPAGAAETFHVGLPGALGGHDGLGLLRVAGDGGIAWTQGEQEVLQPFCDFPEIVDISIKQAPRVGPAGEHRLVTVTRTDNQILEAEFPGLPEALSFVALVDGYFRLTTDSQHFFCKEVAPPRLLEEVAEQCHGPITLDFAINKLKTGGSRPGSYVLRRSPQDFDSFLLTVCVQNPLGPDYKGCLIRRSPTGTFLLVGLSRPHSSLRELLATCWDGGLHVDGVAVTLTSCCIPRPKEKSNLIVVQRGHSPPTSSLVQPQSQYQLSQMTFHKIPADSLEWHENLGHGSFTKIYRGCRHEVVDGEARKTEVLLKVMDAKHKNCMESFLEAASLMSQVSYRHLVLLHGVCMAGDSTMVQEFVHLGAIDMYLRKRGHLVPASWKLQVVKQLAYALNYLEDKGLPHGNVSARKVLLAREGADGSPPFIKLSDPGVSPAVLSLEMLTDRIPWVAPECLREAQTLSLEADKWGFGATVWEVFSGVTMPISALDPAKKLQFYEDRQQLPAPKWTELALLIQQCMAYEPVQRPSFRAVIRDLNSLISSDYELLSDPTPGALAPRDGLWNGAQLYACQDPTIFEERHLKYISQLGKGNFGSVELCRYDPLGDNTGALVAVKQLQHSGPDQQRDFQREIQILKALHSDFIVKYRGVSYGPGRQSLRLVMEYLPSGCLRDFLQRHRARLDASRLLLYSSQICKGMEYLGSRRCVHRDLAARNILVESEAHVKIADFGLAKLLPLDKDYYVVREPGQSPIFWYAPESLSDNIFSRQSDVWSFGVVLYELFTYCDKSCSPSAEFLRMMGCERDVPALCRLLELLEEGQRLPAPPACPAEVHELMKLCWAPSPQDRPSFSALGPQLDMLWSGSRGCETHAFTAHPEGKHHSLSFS
Method: as §1, with “JAK3 enzyme” for “TYK2 enzyme”, “a JAK3” for “a TYK2”, “to 12” for “to 375”, “to 15” for “to 30”

T3 sequence (O60674 whole entry): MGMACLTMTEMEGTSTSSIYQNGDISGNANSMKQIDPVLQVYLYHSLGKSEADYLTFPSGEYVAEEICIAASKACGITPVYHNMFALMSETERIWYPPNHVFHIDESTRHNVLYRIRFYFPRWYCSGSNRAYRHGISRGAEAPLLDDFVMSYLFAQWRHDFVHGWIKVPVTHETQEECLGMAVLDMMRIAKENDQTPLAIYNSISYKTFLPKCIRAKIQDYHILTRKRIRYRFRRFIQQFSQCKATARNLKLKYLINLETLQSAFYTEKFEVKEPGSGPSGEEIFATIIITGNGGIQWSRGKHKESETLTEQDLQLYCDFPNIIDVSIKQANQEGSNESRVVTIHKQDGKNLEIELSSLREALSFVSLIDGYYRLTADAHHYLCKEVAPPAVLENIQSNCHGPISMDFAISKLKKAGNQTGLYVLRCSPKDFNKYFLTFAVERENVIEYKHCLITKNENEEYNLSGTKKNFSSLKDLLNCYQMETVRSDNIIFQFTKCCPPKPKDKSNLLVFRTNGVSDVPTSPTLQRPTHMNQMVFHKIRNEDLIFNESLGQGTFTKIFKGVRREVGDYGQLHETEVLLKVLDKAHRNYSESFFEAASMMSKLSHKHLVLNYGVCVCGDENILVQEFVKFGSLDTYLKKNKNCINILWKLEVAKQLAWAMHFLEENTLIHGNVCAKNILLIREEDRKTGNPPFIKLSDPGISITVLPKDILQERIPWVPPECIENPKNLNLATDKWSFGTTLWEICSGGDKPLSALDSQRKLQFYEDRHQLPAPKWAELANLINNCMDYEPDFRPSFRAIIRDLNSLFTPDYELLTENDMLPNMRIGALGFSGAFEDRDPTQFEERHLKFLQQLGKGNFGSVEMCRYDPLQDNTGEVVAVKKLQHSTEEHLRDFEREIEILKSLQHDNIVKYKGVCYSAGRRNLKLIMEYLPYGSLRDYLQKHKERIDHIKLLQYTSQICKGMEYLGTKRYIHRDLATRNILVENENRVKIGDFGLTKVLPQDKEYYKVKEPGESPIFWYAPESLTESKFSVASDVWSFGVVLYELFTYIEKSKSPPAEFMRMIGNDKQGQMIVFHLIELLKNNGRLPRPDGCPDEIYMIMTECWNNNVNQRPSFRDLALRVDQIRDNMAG
T2 sequence (P23458 whole entry): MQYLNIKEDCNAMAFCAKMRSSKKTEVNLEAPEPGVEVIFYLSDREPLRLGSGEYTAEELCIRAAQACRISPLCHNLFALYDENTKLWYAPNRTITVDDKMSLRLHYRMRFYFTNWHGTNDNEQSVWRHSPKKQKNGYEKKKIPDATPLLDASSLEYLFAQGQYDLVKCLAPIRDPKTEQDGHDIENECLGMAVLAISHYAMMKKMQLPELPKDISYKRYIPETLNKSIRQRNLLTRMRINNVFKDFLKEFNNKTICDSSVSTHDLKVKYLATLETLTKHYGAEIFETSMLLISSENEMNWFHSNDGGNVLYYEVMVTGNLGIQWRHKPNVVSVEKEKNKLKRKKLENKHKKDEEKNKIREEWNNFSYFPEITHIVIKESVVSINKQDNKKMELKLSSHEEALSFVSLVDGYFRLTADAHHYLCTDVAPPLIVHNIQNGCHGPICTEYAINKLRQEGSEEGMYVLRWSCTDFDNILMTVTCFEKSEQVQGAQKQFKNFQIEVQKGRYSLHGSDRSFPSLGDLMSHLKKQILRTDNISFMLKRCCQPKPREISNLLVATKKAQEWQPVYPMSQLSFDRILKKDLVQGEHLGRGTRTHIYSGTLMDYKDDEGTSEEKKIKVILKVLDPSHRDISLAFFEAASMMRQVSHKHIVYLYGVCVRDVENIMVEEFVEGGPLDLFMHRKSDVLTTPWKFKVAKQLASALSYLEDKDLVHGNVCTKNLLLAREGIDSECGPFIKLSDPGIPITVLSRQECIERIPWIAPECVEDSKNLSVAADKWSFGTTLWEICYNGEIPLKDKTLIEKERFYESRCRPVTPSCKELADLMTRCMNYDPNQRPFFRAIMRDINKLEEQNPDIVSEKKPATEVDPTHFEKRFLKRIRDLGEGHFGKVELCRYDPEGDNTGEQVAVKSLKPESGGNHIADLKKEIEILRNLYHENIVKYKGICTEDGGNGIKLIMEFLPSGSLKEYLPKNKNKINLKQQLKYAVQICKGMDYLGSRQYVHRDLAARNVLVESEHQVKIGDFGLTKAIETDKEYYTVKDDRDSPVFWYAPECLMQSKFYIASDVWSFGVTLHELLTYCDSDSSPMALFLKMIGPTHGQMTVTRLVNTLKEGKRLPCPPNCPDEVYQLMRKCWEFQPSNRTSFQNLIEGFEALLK
T1 sequence (P29597 whole entry): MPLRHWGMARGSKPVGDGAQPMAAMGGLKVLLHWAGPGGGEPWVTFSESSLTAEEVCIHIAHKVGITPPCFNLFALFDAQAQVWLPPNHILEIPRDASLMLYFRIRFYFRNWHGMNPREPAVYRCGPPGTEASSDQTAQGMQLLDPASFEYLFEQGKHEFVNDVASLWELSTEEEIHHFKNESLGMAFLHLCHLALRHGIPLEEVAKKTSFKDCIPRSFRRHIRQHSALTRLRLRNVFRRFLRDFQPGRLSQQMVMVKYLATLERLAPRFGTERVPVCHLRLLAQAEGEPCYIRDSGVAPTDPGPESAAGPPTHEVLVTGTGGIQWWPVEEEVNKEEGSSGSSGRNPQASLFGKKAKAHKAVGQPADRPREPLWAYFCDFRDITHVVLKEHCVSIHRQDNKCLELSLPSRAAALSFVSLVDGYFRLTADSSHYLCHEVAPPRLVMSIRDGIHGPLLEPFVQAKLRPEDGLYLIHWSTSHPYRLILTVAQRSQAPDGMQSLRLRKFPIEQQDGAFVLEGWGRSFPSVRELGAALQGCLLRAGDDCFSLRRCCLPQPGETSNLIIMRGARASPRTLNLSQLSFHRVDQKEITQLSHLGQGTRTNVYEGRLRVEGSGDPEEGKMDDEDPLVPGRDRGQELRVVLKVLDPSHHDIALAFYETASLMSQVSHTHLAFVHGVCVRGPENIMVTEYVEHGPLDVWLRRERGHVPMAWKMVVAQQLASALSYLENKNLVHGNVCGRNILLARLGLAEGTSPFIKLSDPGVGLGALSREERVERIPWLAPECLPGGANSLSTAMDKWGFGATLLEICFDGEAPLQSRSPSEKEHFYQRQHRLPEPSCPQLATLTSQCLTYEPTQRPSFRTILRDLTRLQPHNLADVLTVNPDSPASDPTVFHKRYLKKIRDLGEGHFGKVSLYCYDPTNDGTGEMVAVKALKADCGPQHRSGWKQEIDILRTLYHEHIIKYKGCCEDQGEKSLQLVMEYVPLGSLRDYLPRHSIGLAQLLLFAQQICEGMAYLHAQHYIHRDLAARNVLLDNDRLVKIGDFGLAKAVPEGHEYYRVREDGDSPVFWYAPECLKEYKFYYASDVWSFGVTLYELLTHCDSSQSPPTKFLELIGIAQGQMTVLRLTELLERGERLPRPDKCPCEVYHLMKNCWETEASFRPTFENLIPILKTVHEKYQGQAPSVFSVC

| Compound | inhibition at 1 µM (TYK2) [%] | inhibition at 1 µM (JAK1) [%] | inhibition at 1 µM (JAK2) [%] | inhibition at 1 µM (JAK3) [%] |
| --- | --- | --- | --- | --- |
| COCC(=O)N1CCN(c2cc(-c3cn([C@@H](C)C(C)C)c(=O)c4c(N)n[nH]c34)nn2C)CC1 [Example 17, 3-amino-7-(5-(4-(methoxyacetyl)piperazin-1-yl)-1-methyl-1H-pyrazol-3-yl)-5-((2S)-3-methylbutan-2-yl)-1,5-dihydro-4H-pyrazolo[4,3-c]pyridin-4-one] | 100 | 97 | 99 | 99 |
| CC(C)[C@H](C)n1cc(-c2cc(N3CCC(C)(O)CC3)n(C)n2)c2[nH]nc(N)c2c1=O [Example 18, 3-amino-7-(5-(4-hydroxy-4-methylpiperidin-1-yl)-1-methyl-1H-pyrazol-3-yl)-5-((2S)-3-methylbutan-2-yl)-1,5-dihydro-4H-pyrazolo[4,3-c]pyridin-4-one] | 99 | 96 | 98 | 99 |
| CC(C)[C@H](C)n1cc(-c2cc(N3CCCCC3)n(C)n2)c2[nH]nc(N)c2c1=O [Example 19, 3-amino-5-((2S)-3-methylbutan-2-yl)-7-(1-methyl-5-(piperidin-1-yl)-1H-pyrazol-3-yl)-1,5-dihydro-4H-pyrazolo[4,3-c]pyridin-4-one] | 99 | 98 | 98 | 99 |
| CC(C)[C@H](C)n1cc(-c2cc(N3CCC[C@H]3CO)n(C)n2)c2[nH]nc(N)c2c1=O [Example 20, 3-amino-7-(5-((2S)-2-(hydroxymethyl)pyrrolidin-1-yl)-1-methyl-1H-pyrazol-3-yl)-5-((2S)-3-methylbutan-2-yl)-1,5-dihydro-4H-pyrazolo[4,3-c]pyridin-4-one] | 99 | 95 | 98 | 100 |
| CC(C)[C@H](C)n1cc(-c2cc(N3CC[C@@H](O)C3)n(C)n2)c2[nH]nc(N)c2c1=O [Example 21, 3-amino-7-(5-((3R)-3-hydroxypyrrolidin-1-yl)-1-methyl-1H-pyrazol-3-yl)-5-((2S)-3-methylbutan-2-yl)-1,5-dihydro-4H-pyrazolo[4,3-c]pyridin-4-one] | 99 | 97 | 98 | 99 |
| CC(C)[C@H](C)n1cc(-c2cc(N3CCC[C@@H]3CO)n(C)n2)c2[nH]nc(N)c2c1=O [Example 22, 3-amino-7-(5-((2R)-2-(hydroxymethyl)pyrrolidin-1-yl)-1-methyl-1H-pyrazol-3-yl)-5-((2S)-3-methylbutan-2-yl)-1,5-dihydro-4H-pyrazolo[4,3-c]pyridin-4-one] | 99 | 96 | 98 | 99 |
| CC(C)[C@H](C)n1cc(-c2cc(N3CC[C@H](O)C3)n(C)n2)c2[nH]nc(N)c2c1=O [Example 23, 3-amino-7-(5-((3S)-3-hydroxypyrrolidin-1-yl)-1-methyl-1H-pyrazol-3-yl)-5-((2S)-3-methylbutan-2-yl)-1,5-dihydro-4H-pyrazolo[4,3-c]pyridin-4-one] | 99 | 97 | 98 | 99 |
| CO[C@@H]1CCN(c2cc(-c3cn([C@@H](C)C(C)C)c(=O)c4c(N)n[nH]c34)nn2C)C1 [Example 24, 3-amino-7-(5-((3R)-3-methoxypyrrolidin-1-yl)-1-methyl-1H-pyrazol-3-yl)-5-((2S)-3-methylbutan-2-yl)-1,5-dihydro-4H-pyrazolo[4,3-c]pyridin-4-one] | 100 | 96 | 98 | 99 |
| CO[C@H]1CCN(c2cc(-c3cn([C@@H](C)C(C)C)c(=O)c4c(N)n[nH]c34)nn2C)C1 [Example 25, 3-amino-7-(5-((3S)-3-methoxypyrrolidin-1-yl)-1-methyl-1H-pyrazol-3-yl)-5-((2S)-3-methylbutan-2-yl)-1,5-dihydro-4H-pyrazolo[4,3-c]pyridin-4-one] | 100 | 98 | 98 | 99 |
| COC[C@@H]1CCCN1c1cc(-c2cn([C@@H](C)C(C)C)c(=O)c3c(N)n[nH]c23)nn1C [Example 26, 3-amino-7-(5-((2S)-2-(methoxymethyl)pyrrolidin-1-yl)-1-methyl-1H-pyrazol-3-yl)-5-((2S)-3-methylbutan-2-yl)-1,5-dihydro-4H-pyrazolo[4,3-c]pyridin-4-one] | 98 | 88 | 96 | 98 |
